From patent publication EP0230922A2, “Use of peptides in the preparation of agents for the treatment of coronary diseases or organic brain syndrome” (BOEHRINGER INGELHEIM KG, priority 1986, dated 1987)
Where “and” joins values, the source holds several entries; their conditions need not be identical. Identical values can stand only once.

Columns and labels:
Mäuse (ChbI:NMRI) = test: Scopolamine test: passive avoidance in mice; type: in vivo; details: per os, scopolamine hydrobromide 0,6 mg/kg s.c., test 1 h after dosing
Excerpt: Durch den cholinerg-muskarinen Antagonisten Scopolamin wird bei Mensch und Tier eine vorübergehende Störung des übergangs von Inhalten des Kurzzeitgedächtnisses in das Langzeitgedächtnis hervorgerufen. Die auch klinisch bei gesunden Probanden durch Scopolamin auslösbaren, mnestischen Störungen sind in ihrer Ausprägung den psychopathologischen Veränderungen bei Patienten mit organischem Hirnsyndrom ähnlich (Drachman & Leavitt, 1974).
Der Scopolamin-Test wird an Gruppen von jeweils 10 männlichen, nicht nüchternen, naiven Mäusen (ChbI:NMRI: Körpergewicht 35 g) mit Hilfe einer passiven Vermeidereaktion durchgeführt. Das Testgerät besteht aus einer Skinner Box (30 cm x 26 cm x 29 cm) mit einem elektrifizierbaren Gitterboden und einer Plastikplattform (5 cm x 5 cm) an einer Seitenwand. Die Tiere werden einzeln in die Skinner Box gesetzt. Nach einer Orientierungsperiode von 30 sec werden kurze, unterbrochene Stromstöße von ca. 0,8 mA so oft an den Gitterboden der Box gelegt, bis das Tier gelernt hat, daß das Aufsuchen und Verweilen auf der Plastikplattform vor dem Stromstoß Sicherheit gewährt. Tiere, welche dies innerhalb von 120 sec nicht lernen, werden nicht weiter verwendet. Die anderen Mäuse werden unmittelbar nach Erlernen der passiven Vermeidereaktion in drei Gruppen (10 Tiere pro Gruppe) eingeteilt. Eine Gruppe erhält Scopolaminhydrobromid (0,6 mg/kg s.c.) und oral Vehikel (0,5 % Tylose); die zweite Gruppe Scopolaminhydrobromid sowie die zu testende Substanz per os in 0,5 % Tylose und die dritte Gruppe lediglich 0,5 % Tylose p.o.. Eine Stunde nach Applikation wird jedes Tier einzeln auf die Plattform gesetzt, um das Erinnerungsvermögen an die erlernte Vermeidereaktion zu prüfen. Das Kriterium besteht in der Bestimmung, ob die Maus während mindestens 60 sec auf der Plattform verbleibt (Ja-Antwort) oder nicht (Nein-Antwort).
Etwa 75 % der Tiere, welche ausschließlich mit 0,5 % Tylose behandelt wurden, verbleiben bei der abschließenden Prüfung länger als 60 sec auf der Plattform: ein Ergebnis, welches als Ausdruck des guten Erinnerungsvermögens an die erlernte Erfahrung gedeutet werden kann. Nach Gabe von Scopolamin und Tylose verbleiben durchschnittlich etwa 25 % der Tiere auf der Plattform; dies zeigt die erhebliche Beeinträchtigung des Erinnerungsvermögens nach Gabe von Scopolamin.

Mäuse (ChbI: NMRI) = test: Hypoxia tolerance: survival of mice in a closed chamber (96,5 % N2, 3,5 % O2); type: in vivo; details: given 24 h, 16 h and 30 min before test, 10 mice per group
Excerpt: 1. HYPOXIE-TOLERANZ, d.h. bei der Prüfung der überlebensfähigkeit von Tieren in einer geschlossenen Kammer.
Eine aus Plexiglas hergestellte, durchsichtige, mit einem Deckel verschließbare Kammer (28 cm x 40 cm x 20 cm; Gesamtvolumen 22,4 1) ist in 2 Hälften geteilt, in die je 10 männliche oder weibliche Mäuse (ChbI: NMRI; 20-25 g Körpergewicht) gesetzt werden. Die Kammer wird mit einem Gasgemisch, bestehend aus 96,5 % N2 und 3,5 % 02 durchströmt; das Strömungsvolumen beträgt 12 1/min.
Eine der beiden Gruppen erhält Prüfsubstanzen, die andere das Vehikel (0,5 % Tylose), die 24 h, 16 h und 30 min vor dem Test oral appliziert werden. Etwa 6-7 min nach Beginn der Durchströmung der Kammer sterben die ersten Tiere. Das Experiment wird beendet, wenn in der Kontrollgruppe nur noch 2-3 Tiere Zeichen von Leben zeigen.
Ohne die Tiere zu berühren, wird 15 min gewartet und dann die Zahl der überlebenden Tiere in den beiden Hälften der Kammern endgültig festgestellt. Die statistische Signifikanz der Differenz der überlebenden Tiere in beiden Gruppen kann mit dem "Exakten Test von Fisher für 2 x 2 Feldertafeln" festgestellt werden.

Row | Compound | %der Tiere bei welcher die Scopol-amin-Wirkung anta-gonisiert wurde (Mäuse (ChbI:NMRI); Dosis 0,5 (unit not given)) [%] | %der Tiere bei welcher die Scopol-amin-Wirkung anta-gonisiert wurde (Mäuse (ChbI:NMRI); Dosis 1 (unit not given)) [%] | %der Tiere bei welcher die Scopol-amin-Wirkung anta-gonisiert wurde (Mäuse (ChbI:NMRI); Dosis 5 (unit not given)) | %der Tiere bei welcher die Scopol-amin-Wirkung anta-gonisiert wurde (Mäuse (ChbI:NMRI); Dosis 10 (unit not given)) | Behandelte Tiere Überlebende % (Mäuse (ChbI: NMRI); 10 mg/kg p.o.) [%] | Behandelte Tiere Überlebende % (Mäuse (ChbI: NMRI); 30 mg/kg p.o.) [%] | Behandelte Tiere Überlebende % (Mäuse (ChbI: NMRI); 50 mg/kg p.o.) | %der Tiere bei welcher die Scopol-amin-Wirkung anta-gonisiert wurde (Mäuse (ChbI:NMRI); Dosis 20 (unit not given)) [%] | %der Tiere bei welcher die Scopol-amin-Wirkung anta-gonisiert wurde (Mäuse (ChbI:NMRI); Dosis 30 (unit not given)) [%]
1 | CC(=O)S[C@@H](Cc1ccccc1)C(=O)N[C@@H](C)C(=O)N1CCC[C@H]1C(=O)OCOC(=O)C(C)(C)C [Verbindung 3, N-[N-(3-Phenyl-2-S-acetylmercaptopropanoyl)-S-alanyl]-S-prolin-pivaloyloxymethylester] | 40 | 60 | 40% | 40% and 80% | 50 | 30 | 80% and 100% |  | 
2 | C[C@H](NC(=O)[C@@H](S)Cc1ccccc1)C(=O)N1CCC[C@H]1C(=O)OCOC(=O)C(C)(C)C [Verbindung 4, N-[N-(3-Phenyl-2-S-mercaptopropanoyl)-S-alanyl]-S-prolin-pivaloyloxymethylester] |  |  |  |  | 90 | 30 | 70% and 100% |  | 
3 | C[C@H](NC(=O)[C@H](Cc1ccccc1)SC(=O)c1ccccc1)C(=O)N1CCC[C@H]1C(=O)O [Verbindung 2, N-[N-(3-Phenyl-2-S-benzoylmercaptopropanoyl)-S-alanyl]-S-prolin] |  | 30 | 50% | 50% and 30% |  | 60 |  |  | 
4 | C[C@H](NC(=O)[C@H](Cc1ccccc1)SCOC(=O)C(C)(C)C)C(=O)N1CCC[C@H]1C(=O)OCOC(=O)C(C)(C)C [Verbindung 1, N-[N-(3-Phenyl-2-S-pivaloyloxymethylmercapto-propanoyl)-S-alanyl]-S-prolin-pivaloyloxymethylester] |  |  | 80% and 40% | 40% and 30% | 100 | 80 |  | 40 | 40
